In patent US6525001B1, “Substituted pyrimidine and pyridine herbicides” (Mid-American Commercialization Corporation, priority 1997, dated 2003):

Tests used:
Experiment in all cases: Test D
Assay type in all cases: in vivo
[1] = system: Italian ryegrass (Lolium multiflorum); settings: PREEMERGENCE
[2] = system: wild oat (Avena fatua); settings: PREEMERGENCE
[3] = system: sunflower (Helianthus annuus); set-up: key: 0 is no effect; 100 is complete control; settings: PREEMERGENCE
[4] = system: spring barley (Hordeum vulgare); settings: PREEMERGENCE
[5] = system: lambsquarters (Chenopodium album); set-up: key: 0 is no effect; 100 is complete control; settings: PREEMERGENCE
[6] = system: sunflower (Helianthus annuus); settings: POSTEMERGENCE
Experimental: (§1) Compounds evaluated in this test were formulated in a non-phytotoxic solvent mixture which included a surfactant and applied to plants that were in the 1- to 4-leaf stage (postemergence application). A mixture of sandy loam soil and greenhouse potting mix in a 60:40 ratio was used for the postemergence test.
(§2) Plantings of these crops and weed species were adjusted to produce plants of appropriate size for the postemergence test. All plant species were grown using normal greenhouse practices. Crop and weed species include alfalfa (Medicago sativa), annual bluegrass (Poa annua), blackgrass (Alopecurus myosuroides), black nightshade (Solanum nigra), chickweed (Stellaria media), common poppy (Papaver rhoeas), deadnettle (Lamium amplexicaule), downy brome (Bromus tectorum), field violet (Viola arvensis), galium 2 (Galium aparine), green foxtail (Setaria viridis), Italian ryegrass (Lolium multiflorum), jointed goatgrass (Aegilops cylindrica), kochia (Kochia scoparia), lambsquarters (Chenopodium album), lentil (Lens culinaris), littleseed canarygrass (Phalaris minor), pea (Pisum sativum), potato (Solanum tuberosum), rape (Brassica napus), redroot pigweed (Amaranthus retroflexus), Russian thistle (Salsola kali), scentless chamomile (Matricaria inodora), sorghum (Sorghum vulgare), spring barley (Hordeum vulgare), sugar beet (Beta vulgaris), sunflower (Helianthus annuus), ivyleaf speedwell (Veronica hederaefolia), spring wheat (Triticum aestivum), winter wheat (Triticum aestivum), wild buckwheat (Polygonum convolvulus), wild mustard (Sinapis arvensis), wild oat (Avena fatua), windgrass (Apera spica-venti) and winter barley (Hordeum vulgare).
(§3) Treated plants and untreated controls were maintained in a greenhouse for approximately 21 to 28 days, after which all treated plants were compared to untreated controls and visually evaluated. Plant response ratings, summarized in Table D, are based upon a 0 to 100 scale where 0 is no effect and 100 is complete control. A dash response (−) means no test result.

[7] = system: green foxtail (Setaria viridis); settings: POSTEMERGENCE
Experimental: as §1, §2, §3

[8] = system: blackgrass (Alopecurus myosuroides); settings: POSTEMERGENCE
Experimental: as §1, §2, §3

[9] = system: winter barley (Hordeum vulgare); settings: POSTEMERGENCE
Experimental: as §1, §2, §3

[10] = system: spring barley (Hordeum vulgare); settings: POSTEMERGENCE
Experimental: as §1, §2, §3

[11] = system: winter wheat (Triticum aestivum); settings: POSTEMERGENCE
Experimental: as §1, §2, §3

[12] = system: spring wheat (Triticum aestivum); settings: POSTEMERGENCE
Experimental: as §1, §2, §3

[13] = system: scentless chamomile (Matricaria inodora); settings: POSTEMERGENCE
Experimental: as §1, §2, §3

[14] = system: windgrass (Apera spica-venti); settings: POSTEMERGENCE
Experimental: as §1, §2, §3

[15] = system: downy brome (Bromus tectorum); settings: POSTEMERGENCE
Experimental: as §1, §2, §3

[16] = system: littleseed canarygrass (Phalaris minor); settings: POSTEMERGENCE
Experimental: as §1, §2, §3

[17] = system: annual bluegrass (Poa annua); settings: POSTEMERGENCE
Experimental: as §1, §2, §3

[18] = system: Italian ryegrass (Lolium multiflorum); settings: POSTEMERGENCE
Experimental: as §1, §2, §3

[19] = system: wild oat (Avena fatua); settings: POSTEMERGENCE
Experimental: as §1, §2, §3

[20] = system: jointed goatgrass (Aegilops cylindrica); settings: POSTEMERGENCE
Experimental: as §1, §2, §3

Compound: CCc1cnc(-n2ccc(C(F)(F)F)n2)nc1Cc1cccc(C(F)(F)F)c1 [Compound 46]
- Plant response rating, I. Ryegrass ([1]; Rate 31 g/ha): 60
- Plant response rating, I. Ryegrass ([1]; Rate 62 g/ha): 60
- Plant response rating, Wild oat ([2]; Rate 31 g/ha): 50
- Plant response rating, Wild oat ([2]; Rate 62 g/ha): 70
- Plant response rating, Sunflower ([3]; Rate 31 g/ha): 10
- Plant response rating, Sunflower ([3]; Rate 62 g/ha): 30
- Plant response rating, Spring Barley ([4]; Rate 31 g/ha): 30
- Plant response rating, Spring Barley ([4]; Rate 62 g/ha): 5
- Plant response rating, Lambsquarters ([5]; Rate 31 g/ha): 65
- Plant response rating, Lambsquarters ([5]; Rate 62 g/ha): 70

Compound: Cc1cnc(-n2cnc(C(F)(F)F)n2)nc1Cn1ccc(C(F)(F)F)n1 [Compound 51]
- Plant response rating, I. Ryegrass ([1]; Rate 31 g/ha): 60
- Plant response rating, I. Ryegrass ([1]; Rate 62 g/ha): 90
- Plant response rating, Wild oat ([2]; Rate 31 g/ha): 80
- Plant response rating, Wild oat ([2]; Rate 62 g/ha): 95
- Plant response rating, Sunflower ([3]; Rate 31 g/ha): 40
- Plant response rating, Sunflower ([3]; Rate 62 g/ha): 40
- Plant response rating, Spring Barley ([4]; Rate 31 g/ha): 70
- Plant response rating, Spring Barley ([4]; Rate 62 g/ha): 80
- Plant response rating, Lambsquarters ([5]; Rate 31 g/ha): 70
- Plant response rating, Lambsquarters ([5]; Rate 62 g/ha): 70

Compound: Cc1cnc(-n2ccc(C(F)(F)F)n2)nc1Cn1ccc(C(F)(F)F)n1 [Compound 52]
- Plant response rating, I. Ryegrass ([1]; Rate 31 g/ha): 30
- Plant response rating, I. Ryegrass ([1]; Rate 62 g/ha): 70
- Plant response rating, I. Ryegrass ([1]; Rate 125 g/ha): 70
- Plant response rating, Wild oat ([2]; Rate 31 g/ha): 40
- Plant response rating, Wild oat ([2]; Rate 62 g/ha): 50
- Plant response rating, Wild oat ([2]; Rate 125 g/ha): 60
- Plant response rating, Sunflower ([3]; Rate 31 g/ha): 0
- Plant response rating, Sunflower ([3]; Rate 62 g/ha): 0
- Plant response rating, Sunflower ([3]; Rate 125 g/ha): 0
- Plant response rating, Sunflower ([6]; Rate 16 g/ha): 40
- Plant response rating, Sunflower ([6]; Rate 31 g/ha): 20
- Plant response rating, Sunflower ([6]; Rate 62 g/ha): 50
- Plant response rating, Sunflower ([6]; Rate 125 g/ha): 70
- Plant response rating, Green foxtail ([7]; Rate 16 g/ha): 10
- Plant response rating, Green foxtail ([7]; Rate 31 g/ha): 10
- Plant response rating, Green foxtail ([7]; Rate 62 g/ha): 10
- Plant response rating, Green foxtail ([7]; Rate 125 g/ha): 30
- Plant response rating, Blackgrass ([8]; Rate 16 g/ha): 10
- Plant response rating, Blackgrass ([8]; Rate 31 g/ha): 10
- Plant response rating, Blackgrass ([8]; Rate 62 g/ha): 10
- Plant response rating, Blackgrass ([8]; Rate 125 g/ha): 10
- Plant response rating, Barley (winter) ([9]; Rate 16 g/ha): 10
- Plant response rating, Barley (winter) ([9]; Rate 31 g/ha): 10
- Plant response rating, Barley (winter) ([9]; Rate 62 g/ha): 10
- Plant response rating, Barley (winter) ([9]; Rate 125 g/ha): 10
- Plant response rating, Spring Barley ([10]; Rate 16 g/ha): 10
- Plant response rating, Spring Barley ([10]; Rate 31 g/ha): 10
- Plant response rating, Spring Barley ([10]; Rate 62 g/ha): 10
- Plant response rating, Spring Barley ([10]; Rate 125 g/ha): 10
- Plant response rating, Wheat (winter) ([11]; Rate 16 g/ha): 10
- Plant response rating, Wheat (winter) ([11]; Rate 31 g/ha): 10
- Plant response rating, Wheat (winter) ([11]; Rate 62 g/ha): 10
- Plant response rating, Wheat (winter) ([11]; Rate 125 g/ha): 10
- Plant response rating, Spring Wheat ([12]; Rate 16 g/ha): 10
- Plant response rating, Spring Wheat ([12]; Rate 31 g/ha): 10
- Plant response rating, Spring Wheat ([12]; Rate 62 g/ha): 10
- Plant response rating, Spring Wheat ([12]; Rate 125 g/ha): 10
- Plant response rating, Scentless chamo ([13]; Rate 16 g/ha): 30
- Plant response rating, Scentless chamo ([13]; Rate 31 g/ha): 50
- Plant response rating, Scentless chamo ([13]; Rate 62 g/ha): 60
- Plant response rating, Scentless chamo ([13]; Rate 125 g/ha): 70
- Plant response rating, Windgrass ([14]; Rate 16 g/ha): 10
- Plant response rating, Windgrass ([14]; Rate 31 g/ha): 10
- Plant response rating, Windgrass ([14]; Rate 62 g/ha): 20
- Plant response rating, Windgrass ([14]; Rate 125 g/ha): 50
- Plant response rating, Downy brome ([15]; Rate 16 g/ha): 10
- Plant response rating, Downy brome ([15]; Rate 31 g/ha): 20
- Plant response rating, Downy brome ([15]; Rate 62 g/ha): 20
- Plant response rating, Downy brome ([15]; Rate 125 g/ha): 20
- Plant response rating, LS canarygrass ([16]; Rate 16 g/ha): 10
- Plant response rating, LS canarygrass ([16]; Rate 31 g/ha): 10
- Plant response rating, LS canarygrass ([16]; Rate 62 g/ha): 10
- Plant response rating, LS canarygrass ([16]; Rate 125 g/ha): 20
- Plant response rating, Annual bluegras ([17]; Rate 16 g/ha): 10
- Plant response rating, Annual bluegras ([17]; Rate 31 g/ha): 20
- Plant response rating, Annual bluegras ([17]; Rate 62 g/ha): 20
- Plant response rating, Annual bluegras ([17]; Rate 125 g/ha): 50
- Plant response rating, I. Ryegrass ([18]; Rate 16 g/ha): 5
- Plant response rating, I. Ryegrass ([18]; Rate 31 g/ha): 10
- Plant response rating, I. Ryegrass ([18]; Rate 62 g/ha): 10
- Plant response rating, I. Ryegrass ([18]; Rate 125 g/ha): 10
- Plant response rating, Wild oat ([19]; Rate 16 g/ha): 10
- Plant response rating, Wild oat ([19]; Rate 31 g/ha): 10
- Plant response rating, Wild oat ([19]; Rate 62 g/ha): 10
- Plant response rating, Wild oat ([19]; Rate 125 g/ha): 10
- Plant response rating, Jointed goatgra ([20]; Rate 16 g/ha): 10
- Plant response rating, Jointed goatgra ([20]; Rate 31 g/ha): 10
- Plant response rating, Jointed goatgra ([20]; Rate 62 g/ha): 10
- Plant response rating, Jointed goatgra ([20]; Rate 125 g/ha): 10
- Plant response rating, Spring Barley ([4]; Rate 31 g/ha): 50
- Plant response rating, Spring Barley ([4]; Rate 62 g/ha): 60
- Plant response rating, Spring Barley ([4]; Rate 125 g/ha): 80
- Plant response rating, Lambsquarters ([5]; Rate 31 g/ha): 90
- Plant response rating, Lambsquarters ([5]; Rate 62 g/ha): 90
- Plant response rating, Lambsquarters ([5]; Rate 125 g/ha): 100
